Measured values: the METLIN SMRT retention time set (Domingo-Almenara et al. 2019)

Experiment: gradient 5% acetonitrile 3 min, to 50% in 2 min, to 85% in 15 min, held 3 min, 100 µL/min
Conditions: column: Zorbax Extend-C18 2.1 x 50 mm; eluents: water / acetonitrile, 0.1% formic acid
How it was run: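 Each retention time is based on an adduct peak selected computationally and verified by manual inspection. Measurements used HPLC–quadrupole time-of-flight mass spectrometry in positive and negative ionization mode on mixtures of ~100 pure standards. Chromatography ran on a Zorbax Extend-C18 column (2.1 × 50 mm, 1.8 μm) at 100 μL/min with water and acetonitrile, each containing 0.1% formic acid, and dead and dwell volumes of 40 μL and 900 μL.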

Row | Structure (SMILES) | RP-LC retention time
1 | COc1ccc(C)cc1NC(=O)C1CCCN(S(=O)(=O)c2c[nH]c(C(=O)N3CCCC3)c2)C1 (stereo not given) | 824 s
2 | O=C(NCCN1CCCCC1)C1CCCN(c2cnc3nccnc3c2)C1 (stereo not given) | 562 s
3 | Cc1nnc2c(NC(=O)c3cnccn3)cccn12 | 600 s
4 | CN(C)c1ccc(/C=C/C(=O)c2ccccc2)cc1Br | 1170 s
5 | CCn1cc(CCNC(=O)Nc2cc(F)c(F)c(F)c2)c2cccnc21 | 820 s
6 | O=C(NCCc1csc(-c2ccc(F)cc2)n1)c1ccc2c(c1)OCO2 | 908 s
7 | Cn1c(N2CCCC(C(=O)NCC3CCN(Cc4cccc(F)c4)CC3)C2)cc(=O)n(C)c1=O (stereo not given) | 575 s
8 | O=C(NCc1ccccc1)Nc1c(-c2ccc(F)cc2)nc2ccccn12 | 661 s
9 | COc1ccc(CC(=O)N2CCCC2c2cc(C(C)C)on2)cc1OC (stereo not given) | 800 s
10 | O=C(NCCc1csc(-c2cccc(F)c2)n1)c1ccc([N+](=O)[O-])cc1Cl | 917 s
11 | CCc1ccc(CNC(=O)Cn2c(C)nc3onc(C)c3c2=O)cc1 | 821 s
12 | Cc1nc(-c2cccc(NC(=O)c3cncc(Br)c3)c2)no1 | 834 s
13 | CCN1C(=O)C(C)(C(=O)NCc2cccc(C)c2)Oc2cccnc21 (stereo not given) | 744 s
14 | CCN(CC)CCNC(=O)CCc1cc2cc(C)ccc2[nH]c1=O | 587 s
15 | Cc1noc(C2CN(C(=O)NC3CCCC3)CC23CCOCC3)n1 (stereo not given) | 633 s
16 | COc1cccc(-c2nc(-c3ccc4oc(C)nc4c3)no2)c1OC | 1020 s
17 | COc1ccc(NC(=O)c2nc(C(C)C)oc2C)cc1Cl | 1080 s
18 | Cn1c(N2CCC(C(=O)N3CCN(Cc4ccc5c(c4)OCO5)CC3)CC2)cc(=O)n(C)c1=O | 579 s
19 | CN(C)CCNc1oc(COc2ccc(Cl)cc2)nc1C#N | 641 s
20 | Cc1nc(CSc2ccc(-c3cccc([N+](=O)[O-])c3)nn2)cs1 | 817 s
21 | COc1ccc2c(CCNC(=O)c3cccs3)c[nH]c2c1 | 764 s
22 | O=C(N1CC(Oc2cccc(-c3nc(-c4ccccc4)no3)c2)C1)C1(c2ccccc2)CC1 | 1310 s
23 | CC1(C(=O)NCc2ccc(Cl)cc2)Oc2cccnc2NC1=O (stereo not given) | 725 s
24 | NC[C@@](O)(c1ccc(Cl)cc1)c1ccc(-c2cn[nH]c2)cc1 | 678 s
25 | COc1cc(OC)cc(-c2noc(-c3cn(C)c4ccc(C)cc4c3=O)n2)c1 | 894 s
26 | COC(=O)c1ccc(-c2nc3cnccn3c2NC2CCCC2)cc1 | 877 s
27 | CN(CCc1noc(-c2ccc(C(=O)NCCCN3CCCC3)cc2)n1)C(=O)c1ccc(F)cc1 | 623 s
28 | CCCCN1C(=O)C(CC(=O)NC2CCCC2)Sc2ncccc21 (stereo not given) | 808 s
29 | Cc1nn(CC(=O)NCCC(C)C)c(=O)c2c(-n3cccc3)n(-c3ccc(Cl)cc3)nc12 | 1030 s

Continued, values first:

Row | RP-LC retention time | Structure (SMILES)
30 | 664 s | COc1ccc(OC)c(NC(=O)N2CCN(Cc3cn(C)c4ccccc34)CC2)c1
31 | 687 s | Cc1nc2cc(N3CCCC(C(=O)NCc4cccs4)C3)cnc2nc1C (stereo not given)
32 | 571 s | O=C(CSc1nnc(CCc2nc3ccccc3[nH]2)o1)NCc1c(F)cccc1F
33 | 659 s | CN(Cc1nc2cc(C(=O)N3CCCC3)ccc2n1C)C(=O)Nc1ccc(Br)cc1F
34 | 988 s | O=S(=O)(CCc1ccccc1)N1CCCn2nc(-c3cccs3)cc2C1
35 | 1010 s | CCc1noc(-c2nc(-c3ccccc3F)no2)n1
36 | 582 s | CNc1nc(N2CCOCC2)nc2ccccc12
37 | 895 s | Cc1ccc(NC(=O)N2C[C@@H](F)C[C@H]2C(=O)N2CCc3ccccc3C2)cc1Cl
38 | 650 s | O=C(c1ccc(-c2csc(C3CC3)n2)cc1)N1CCN(c2ccccn2)CC1
39 | 714 s | CC(C)CCNC(=O)c1csc(-c2ccc(N3CCCC3)nc2)n1
40 | 649 s | O=C(c1ccoc1)N1CCCn2cc(-c3ccccc3F)nc21
41 | 560 s | COc1ccc2nc(NC3=NCN(Cc4cccnc4)CN3)nc(C)c2c1
42 | 662 s | CCc1ccccc1NC(=O)Nc1ccc2nncn2c1
43 | 700 s | CCn1c(CCC(=O)NCc2cccc(F)c2)nc2ccccc2c1=O
44 | 688 s | Cc1c(C(=O)NCCCN2CCOCC2)oc2ccc3c(c12)C(O)CC1(CCCCC1)O3 (stereo not given)
45 | 656 s | Cc1cc(C(=O)N2CCCn3cc(-c4ccccc4F)nc32)nn1C
